Structures can show the parent of a compound that is named as a salt. Where two headings read alike, the source gives them in different places. Where no end group is shown, it is not given here.
Tested on: SMN protein in SMA patient fibroblasts (GM03813)
Test: SMN cytoblot assay (SMN protein levels in SMA patient fibroblasts)
Assay type: cell-based, human
Text: One method for monitoring SMN protein levels in cells is through use of a cytoblot assay, in which cells are fixed and probed with an antibody against a target protein of interest. We have used a cytoblot assay to determine the concentration of SMN protein in SMA patient fibroblasts, and have identified small molecules that increase SMN protein concentration.
Using the cytoblot assay, we can clearly distinguish SMN protein levels in patient (GM03813) versus carrier fibroblast cells (GM03814), as shown in the FIGS. 1A and 1B.
• 1. Plate 50 μl per well of 300,000 cells/ml (15,000 cells per well) into Nunc white 384-well opaque-bottomed plates. • 2. Incubate plates at 37° C., 5% CO2 overnight. Day 2 • 1. Aspirate media from wells using Tecan plate washer. • 2. Fix cells by adding 20 μl/well of cold methanol (kept in −20° C. freezer). • 3. Incubate plates in 4° C. refrigerator for 10 minutes. • 4. Aspirate methanol using Tecan plate washer. • 5. Add 50 μl/well of primary Ab solution, (BD anti-SMN Ab diluted to 125 ng/ml in 10% fetal goat serum PBST), using multi-drop. • 6. Seal plates and incubate overnight at room temperature. Day 3 • 1. After 16-20 hrs incubation, wash plates with PBST 2× using Tecan plate washer. • 2. Add 50 μl of secondary Ab solution, (Santa Cruz goat anti-Mouse-HRP diluted to 67 ng/ml in 10% fetal goat serum PBST). • 3. Seal plates and incubate 2 hrs at room temperature. • 4. Wash plates with PBST 2× using Tecan plate washer. • 5. Add 50 μl/well 10% fetal goat serum PBST. • 6. Incubate in 4° C. refrigerator for 10 minutes. • 7. Aspirate plates using plate washer and add ECL luminescence solution, 20 μl/well. • 8. Measure luminescence on plate reader. Automated Scoring
We scored each compound based on the maximum signal-to-noise ratio (SNR) found among its dose curves. These scores are based on edge-corrected SMN data, using only plates that passed quality control. The untreated level on each plate was found by taking the median of the untreated wells, and for each treated well we calculated a log(T/U) ratio. Each curve was generated in triplicate on each plate, so each point on a compound's dose curve was obtained by determining the median for the replicate points. Each ratio thus has an error estimate from the scatter between the triplicate data points (1.5 times the median absolute deviation from the median). For each dose curve, we calculated the SNR for each data point log(T/U)/error, and chose the maximum point as our indicator of SMN induction activity. Since this is a signal-to-noise score, scores much greater than one indicate significant activity, assuming normal statistics. We decided to use a cutoff signal-to-noise ratio of 6. This selection represents a considerable enrichment towards visually-selected compounds. We identified 100 out of 2000 compounds producing scores >6. This included 13 of the 28 visual selections.

[1] = maximum signal-to-noise ratio log(T/U)/error among a compound's dose curves, SMN cytoblot, cutoff 6, column Scoring says Automated or Visual selection

`NCC1(CC(=O)O)CCCCC1` [Gabapentin] showed an SNR [1] of 6.84.

Work on `C=N[C@@H](C(=O)N[C@@H]1C(=O)N2[C@@H]1SC(C)(C)[C@@H]2C(=O)O)c1ccccc1` [Metampicillin] yielded an SNR [1] of 9.95.

Molecule `CCN(CC)CCNC(=O)c1cc(S(C)(=O)=O)ccc1OC` [Tiapride] has an SNR [1] of 10.5.

With `CN[C@@H]1[C@H](O)[C@H](NC)[C@H]2O[C@@]3(O)C(=O)C[C@@H](C)O[C@H]3O[C@@H]2[C@H]1O` [Spectinomycin] the SNR [1] was 11.

Neomycin Sulfate gave an SNR [1] of 7.96.

`NCCc1c[nH]c2ccc(O)cc12` [Serotonin] showed an SNR [1] of 6.15.

Molecule Ferric Ammonium Citrate has an SNR of 19.4.

Molecule `O=C(OCc1ccccc1)c1ccccc1` [Benzyl Benzoate] has an SNR [1] of 9.42.

`C[C@H](CCC(=O)O)[C@H]1CC[C@H]2[C@@H]3[C@@H](O)C[C@@H]4C[C@H](O)CC[C@]4(C)[C@H]3CC[C@]12C` [Ursodiol] was tested, and the SNR [1] was 9.2.

For `CC1=C(/C=C/C(C)O)C(C)(C)CCC1` (stereo not drawn) [Beta-Ionol], the SNR [1] was 10.3.

`O=C(O)[C@H](O)[C@@H](O)C(=O)O` [L-Tartaric acid] gave an SNR [1] of 6.92.

In the case of `CS(=O)(=O)OCCCCOS(C)(=O)=O` [Busulfan], the SNR [1] is reported as 17.4.

`CC(=O)Oc1cc(C(C)C)c(OCCN(C)C)cc1C` [Moxisylyte Hydrochloride] was tested, and the SNR [1] was 14.3.

`COC(=O)[C@H]1[C@H]2C[C@@H]3c4[nH]c5cc(OC)ccc5c4CCN3C[C@H]2C[C@@H](OC(=O)/C=C/c2cc(OC)c(OC)c(OC)c2)[C@@H]1OC` [Rescinnamine] gave an SNR [1] of 6.3.

For `C=CCCC(=O)O` [4-Pentenoic acid], the SNR [1] was 10.8.

`C=CCSC[C@H](N)C(=O)O` [S-Allyl-L-Cysteine] showed an SNR [1] of 9.02.

`C=C(C)C1CCC(C)CC1OC(C)=O` (stereo not drawn) [Isopulegol acetate] gave an SNR [1] of 11.4.

Work on `CC[C@]12CCCN3CCc4c(n(c5ccccc45)[C@@](O)(C(=O)OC)C1)[C@@H]32` [Vincamine] yielded an SNR [1] of 6.94.

Molecule `CC[N+](CC)(CC)CCOc1cccc(OCC[N+](CC)(CC)CC)c1OCC[N+](CC)(CC)CC` [Gallamine Triethiodide] has an SNR [1] of 15.4.

Work on `CC(=O)OCC(=O)[C@H]1CC[C@H]2[C@@H]3CCC4=CC(=O)CC[C@]4(C)[C@H]3CC[C@]12C` [Desoxycorticosterone Acetate] yielded an SNR [1] of 7.41.

“Calcitonin (CGNLSTCMLGTYTQDFNKFHTFPQTAIGVGAP; ends and bridges not checked; cysteine pairing not given here; UniProt P01258 85-116, looked up)” was tested, and the SNR [1] was 7.46.

Molecule `CCCCCC(Br)C(=O)O` (stereo not drawn) [alpha-Bromohepyanoic acid] has an SNR [1] of 8.41.

`OC[C@@H](O)[C@@H](O[C@@H]1O[C@H](CO)[C@H](O)[C@H](O)[C@H]1O)[C@H](O)[C@@H](O)CO` [Lactitol] was tested, and the SNR [1] was 15.8.

With `CN1CCN(C2=Nc3ccccc3Oc3ccc(Cl)cc32)CC1` [Loxapine Hydrochloride] the SNR [1] was 10.1.

In the case of `COc1c2occc2c(OC)c2c(=O)cc(C)oc12` [Khellin], the SNR [1] is reported as 6.73.

Nonoxynol-9 showed an SNR [1] of 7.

In the case of `CCCCC/C=C\C/C=C\CCCCCCCC(=O)OC` [Methyl Linoleate], the SNR [1] is reported as 10.1.

`CC(O)CN1CCN(CC(=O)[O-])CCN(CC(=O)[O-])CCN(CC(=O)[O-])CC1.[Gd+3]` (stereo not drawn) [Gadoteridol] showed an SNR [1] of 6.54.

Work on `CS(=N)(=O)CC[C@H](N)C(=O)O` (stereo partly drawn) [L-Methionine Sulfoximine] yielded an SNR of 7.29.

For `CC(C)NCC(O)COc1ccc(CCOCC2CC2)cc1` (stereo not drawn) [Betaxolol Hydrochloride], the SNR [1] was 7.21.

`N=C(N)NC(=O)Cc1c(Cl)cccc1Cl` [Guanfacine Hydrochloride, (N-aminoiminomethyl)-2,6-dichlorobenzeneacetamide] showed an SNR [1] of 7.24.

`CCOC(=O)[C@H](CCc1ccccc1)N[C@@H](C)C(=O)N1CCC[C@H]1C(=O)O` [Enalapril] gave an SNR [1] of 6.77.

For `[Ca+2].[Cl-].[Cl-]` [Calcium Chloride], the SNR was 7.63.

`O=C(N/N=C/c1ccc([N+](=O)[O-])o1)c1ccc(O)cc1` [Nifuroxazide] showed an SNR [1] of 6.96.

Molecule `CCn1nc(C(=O)O)c(=O)c2cc3c(cc21)OCO3` [Cinoxacin] has an SNR [1] of 6.

With `CN(C)C(=O)Oc1ccc[n+](C)c1` [Pyridostigmine Bromide] the SNR [1] was 6.19.

In the case of `CCc1cc(C(N)=S)ccn1` [Ethionamide], the SNR [1] is reported as 14.

In the case of `CN1CCCN=C1/C=C/c1cccs1` [Pyrantel Pamoate], the SNR [1] is reported as 6.22.

Work on `NC[C@@H]1O[C@H](O[C@H]2[C@@H](O)[C@H](O[C@@H]3[C@@H](O)[C@H](N)C[C@H](N)[C@H]3O[C@H]3O[C@H](CN)[C@@H](O)[C@H](O)[C@H]3N)O[C@@H]2CO)[C@H](N)[C@@H](O)[C@@H]1O` [Framycetin] yielded an SNR [1] of 13.3.

`CCCCC(CC)COC(=O)/C=C/C(=O)OCC(CC)CCCC` (stereo not drawn) [Bis(2-Ethlyhexyl) Fumarate] gave an SNR [1] of 7.33.

`CC(=O)Nc1c(I)cc(I)c(C(=O)O)c1I` [Acetrizoate Sodium] showed an SNR [1] of 12.8.

Work on `CC(C)(S)C(N)C(=O)O` (racemic) [dl-Penicillamine] yielded an SNR [1] of 9.63.

`CCN(CC)C(C)CN1c2ccccc2Sc2ccccc21` (stereo not drawn) [Ethopropazine Hydrochloride] showed an SNR [1] of 9.61.

“[2-(hexahydro-1 (2H)-azocinyl)ethyl]guanidine [Guanethidine Monosulfate]” was tested, and the SNR [1] was 11.3.

`CCC(=O)OCC(=O)[C@@]1(OC(=O)CC)[C@@H](C)C[C@H]2[C@@H]3CCC4=CC(=O)C=C[C@]4(C)[C@@]3(Cl)[C@@H](O)C[C@@]21C` [Beclomethasone Dipropionate] was tested, and the SNR [1] was 6.27.

`CC(=O)OCC(=O)[C@@]12OC(C)(C)O[C@@H]1C[C@H]1[C@@H]3C[C@H](F)C4=CC(=O)C=C[C@]4(C)[C@@]3(F)[C@@H](O)C[C@@]12C` [Fluocinonide] showed an SNR [1] of 7.01.

Dibekacin Sulfate Salt gave an SNR [1] of 6.79.

For `CC(C)(C)OC(=O)N1CCCNCC1` [1-Boc-homopiperazine], the SNR [1] was 6.66.

`C[N+]1(CCC(C(N)=O)(c2ccccc2)c2ccccc2)CCCCC1` [Fenpiverinium Bromide] gave an SNR [1] of 7.49.

Molecule `[Cl][Cu][Cl]` [Cupric Chloride] has an SNR [1] of 12.1.

Molecule `CC(=O)N1C[C@H](O)C[C@H]1C(=O)O` [Oxaceprol] has an SNR [1] of 10.6.

`O=S(=O)([O-])[O-].[Mn+2]` [Manganese Sulfate] showed an SNR of 10.3.

`CC1(C)S[C@@H]2[C@H](NC(=O)[C@H](NC(=O)N3CCNC3=O)c3ccccc3)C(=O)N2[C@H]1C(=O)O` [Azlocillin Sodium] showed an SNR [1] of 6.7.

With Teicoplanin the SNR [1] was 9.72.

For Chymopapain, the SNR [1] was 6.83.

With `NCC[C@H](O)C(=O)N[C@@H]1C[C@H](N)[C@@H](O[C@H]2O[C@H](CN)[C@@H](O)[C@H](O)[C@H]2O)[C@H](O)[C@H]1O[C@H]1O[C@H](CO)[C@@H](O)[C@H](N)[C@H]1O.O=S(=O)(O)O.O=S(=O)(O)O` [Amikacin Sulfate] the SNR [1] was 7.7.

For `CCCN1C[C@H](CSC)C[C@@H]2c3cccc4[nH]cc(c34)C[C@H]21` [Pergolide Mesylate], the SNR [1] was 7.69.

`C=CCSSCC=C` [Allyl Disulfide] showed an SNR [1] of 9.08.

In the case of `CC(=O)OC/C=C(\C)CCC=C(C)C` [Geranyl Acetate], the SNR [1] is reported as 6.71.

In the case of `CC(C)CCCC(C)CCCC(C)CCCCC(C)CCCC(C)CCCC(C)C` (stereo not drawn) [Hexamethyltetracosane], the SNR [1] is reported as 6.64.

`CN(C)CCC(O)(c1ccccc1)c1ccccc1Cl` (stereo not drawn) [Chlophedianol Hydrochloride] showed an SNR [1] of 7.44.

For `S=[Se]=S` [Selenium Sulfide], the SNR [1] was 7.08.

`CC1CCC(C(C)C)C(O)C1` (stereo not drawn) [Menthol] gave an SNR [1] of 7.87.

Molecule `CCCCc1cccs1` [2-n-Butylthiophene] has an SNR [1] of 8.96.

`O=c1[nH]c(=O)n(C2CCCO2)cc1F` (stereo not drawn) [Tegafur] gave an SNR [1] of 6.74.

With `CCCCCC/C=C\CCCCCCCC(=O)OC` [Methyl Palmitoleate] the SNR [1] was 9.63.

With Ferrous Sulfate the SNR was 7.55.

`CNC[C@H](O)c1ccc(O)c(O)c1` [Epinephrine Bitartrate] gave an SNR [1] of 8.26.

With `C[C@H]1COc2c(C3(N)CC3)c(F)cc3c(=O)c(C(=O)O)cn1c23` [Pazufloxacin] the SNR [1] was 7.83.

`CCCCCCCC/C=C\CCCCCCCC(=O)OC` [Methyl Oleate] showed an SNR [1] of 7.89.

Work on `O=C1Nc2ccc(Cl)cc2[C@@](C#CC2CC2)(C(F)(F)F)O1` [Efavirenz] yielded an SNR [1] of 13.1.

`CC(C)NCC(O)COc1cccc2ccccc12` (stereo not drawn) [Propranolol Hydrochloride] was tested, and the SNR [1] was 7.38.
